Source: US8399482B2, “6-substituted isoquinolines and isoquinolinones” (Sanofi, priority 2008, dated 2013)

How the values were obtained:
recombinant human PKA = target: T1, recombinant human PKA (Homo sapiens, UniProt P17612); test: Determination of Protein Kinase A inhibition (selectivity); assay type: biochemical; settings: from IC50 values
T1 construct: recombinant human PKA (residues 1-351, N-terminal His-tag); His-tag (N); purchased Invitrogen, Karlsruhe, Germany
Procedure, shortened: (§1)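 Full-length His-tagged PKG1-beta and His-tagged PKA (residues 1-351) assayed in Tris-HCl pH 7.4 with fluorescein-labelled peptide and ATP (diluted to 3 μM and 120 μM before mixing), 60 min at 32° C. EDTA-stopped; substrate phosphorylation detected by Caliper mobility-shift separation, giving IC50 values.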

[1] = target: T2, human recombinant ROCK II (Homo sapiens, UniProt O75116); test: Determination of Rho kinase inhibition (ROCK II, Caliper peptide phosphorylation assay); assay type: biochemical; settings: respective form (salt or free base) as obtained in the examples, 60 min at 32° C.
T2 construct: recombinant human ROCK-II residues 11-552; His6 (N); purchased Millipore GmbH, Schwalbach, Germany
Procedure, shortened: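 Enzyme: active N-terminal His6-tagged recombinant human ROCK-II, residues 11-552. Substrate: a fluorescein-labelled peptide, with ATP. IC50 values were determined.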

[2] = target: T3, recombinant human PKG1-beta (Homo sapiens, UniProt Q13976); test: Determination of Protein Kinase G inhibition (selectivity); assay type: biochemical; settings: from IC50 values
T3 construct: PKG1-beta (full-length, with N-terminal His-tag); His-tag (N); purchased Millipore GmbH, Schwalbach, Germany
T3 sequence (Q13976 1-686 isoform Q13976-2): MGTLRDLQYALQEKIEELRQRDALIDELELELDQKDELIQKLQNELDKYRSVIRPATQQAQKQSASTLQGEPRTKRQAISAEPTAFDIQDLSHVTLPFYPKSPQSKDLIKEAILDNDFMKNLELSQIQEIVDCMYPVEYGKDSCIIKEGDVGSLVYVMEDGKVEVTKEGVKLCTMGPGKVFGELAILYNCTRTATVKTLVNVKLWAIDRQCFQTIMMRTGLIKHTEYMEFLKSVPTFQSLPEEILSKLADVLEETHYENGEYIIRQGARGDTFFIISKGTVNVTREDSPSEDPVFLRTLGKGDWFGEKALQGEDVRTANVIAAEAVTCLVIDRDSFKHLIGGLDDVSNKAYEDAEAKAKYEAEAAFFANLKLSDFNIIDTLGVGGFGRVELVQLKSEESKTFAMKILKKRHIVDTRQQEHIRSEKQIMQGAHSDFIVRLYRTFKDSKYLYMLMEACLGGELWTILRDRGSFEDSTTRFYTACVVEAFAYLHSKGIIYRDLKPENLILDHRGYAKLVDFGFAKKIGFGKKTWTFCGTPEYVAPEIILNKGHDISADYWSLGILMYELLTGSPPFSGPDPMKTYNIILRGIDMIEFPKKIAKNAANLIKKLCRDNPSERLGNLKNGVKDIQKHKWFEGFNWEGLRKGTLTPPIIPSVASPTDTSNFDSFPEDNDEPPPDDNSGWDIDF
Procedure, shortened: as §1

Protein Kinase G = settings: Rho kinase inhibitor, background statement; cited from earlier work

T2 sequence (O75116 11-552): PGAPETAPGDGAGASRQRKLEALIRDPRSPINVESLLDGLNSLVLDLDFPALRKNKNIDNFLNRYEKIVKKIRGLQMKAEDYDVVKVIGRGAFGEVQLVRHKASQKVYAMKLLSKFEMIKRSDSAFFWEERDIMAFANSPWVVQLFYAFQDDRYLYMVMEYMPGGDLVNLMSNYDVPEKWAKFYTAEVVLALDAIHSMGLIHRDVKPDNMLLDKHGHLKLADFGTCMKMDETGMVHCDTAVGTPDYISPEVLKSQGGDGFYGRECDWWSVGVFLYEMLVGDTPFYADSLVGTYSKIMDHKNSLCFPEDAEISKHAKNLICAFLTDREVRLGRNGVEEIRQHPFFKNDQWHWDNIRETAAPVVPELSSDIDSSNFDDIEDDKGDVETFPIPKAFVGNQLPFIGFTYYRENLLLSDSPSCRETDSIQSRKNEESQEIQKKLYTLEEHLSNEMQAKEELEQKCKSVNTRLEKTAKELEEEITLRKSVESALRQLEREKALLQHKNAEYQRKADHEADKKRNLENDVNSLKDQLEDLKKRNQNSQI

Selectivity against PKA (recombinant human PKA) [fold] | IC50 [1] [nM] | Selectivity against PKG [2] [fold] | Compound | selectivity against Protein Kinase G (Protein Kinase G) [fold]
>1000 | ≤ 10 | >300 | NC(C1CC1)[C@]1(CCCC(F)(F)F)CC[C@H](Oc2cc3cc[nH]c(=O)c3cc2Cl)CC1 (stereo partly drawn) [Example 73, cis-6-[4-(Amino-cyclopropyl-methyl)-4-(4,4,4-trifluoro-butyl)-cyclohexyloxy]-7-chloro-2H-isoquinolin-1-one] | –
>1000 | ≤ 10 | >1000 | CCC(N)[C@]1(C2CC2)CC[C@H](Oc2cc3cc[nH]c(=O)c3cc2Cl)CC1 (stereo partly drawn) [Example 74, cis-6-[4-(1-Amino-propyl)-4-cyclopropyl-cyclohexyloxy]-7-chloro-2H-isoquinolin-1-one] | –
>1000 | ≤ 10 | >1000 | NC(C1CC1)[C@]1(C2CC2)CC[C@H](Oc2cc3cc[nH]c(=O)c3cc2Cl)CC1 (stereo partly drawn) [Example 75, cis-6-[4-(Amino-cyclopropyl-methyl)-4-cyclopropyl-cyclohexyloxy]-7-chloro-2H-isoquinolin-1-one] | –
>1000 | ≤ 10 | >1000 | CCC(N)[C@]1(C2CCSCC2)CC[C@H](Oc2cc3cc[nH]c(=O)c3cc2Cl)CC1 (stereo partly drawn) [Example 76, cis-6-[4-(1-Amino-propyl)-4-(tetrahydro-thiopyran-4-yl)-cyclohexyloxy]-7-chloro-2H-isoquinolin-1-one] | –
>1000 | ≤ 10 | >300 | CCC[C@]1(C(C)N)CC[C@@H](Oc2cc3cc[nH]c(=O)c3cc2Cl)CC1 (stereo partly drawn) [Example 77, cis-6-[4-(1-Amino-ethyl)-4-propyl-cyclohexyloxy]-7-chloro-2H-isoquinolin-1-one] | –
>300 | 10 to 100 | >100 | CC[C@]1(C(C)N)CC[C@@H](Oc2cc3cc[nH]c(=O)c3cc2F)CC1 (stereo partly drawn) [Example 78, cis-6-[4-(1-Amino-ethyl)-4-ethyl-cyclohexyloxy]-7-fluoro-2H-isoquinolin-1-one] | –
>1000 | ≤ 10 | >300 | CC[C@]1(C(N)CF)CC[C@@H](Oc2cc3cc[nH]c(=O)c3cc2Cl)CC1 (stereo partly drawn) [Example 95, cis-6-[4-(1-Amino-2-fluoro-ethyl)-4-ethyl-cyclohexyloxy]-7-chloro-2H-isoquinolin-1-one] | –
>300 | 10 to 100 | >100 | CC[C@]1(C(N)CF)CC[C@H](Oc2cc3cc[nH]c(=O)c3cc2Cl)CC1 (stereo partly drawn) [Example 96, trans-6-[4-(1-Amino-2-fluoro-ethyl)-4-ethyl-cyclohexyloxy]-7-chloro-2H-isoquinolin-1-one] | –
– | – | – | C[C@@H](N)[C@H]1CC[C@H](C(=O)Nc2ccncc2)CC1 [Example Y-27632] | 20

Compound | Selectivity against PKA (recombinant human PKA) [fold] | IC50 [1] [nM] | Selectivity against PKG [2] [fold] | selectivity against Protein Kinase G (Protein Kinase G) [fold]
CCC(N)[C@]1(C(C)C)CC[C@H](Oc2cc3c(F)c[nH]c(=O)c3cc2Cl)CC1 (stereo partly drawn) [Example 90, cis-6-[4-(1-Amino-propyl)-4-isopropyl-cyclohexyloxy]-7-chloro-4-fluoro-2H-isoquinolin-1-one] | >300 | 10 to 100 | >100 | –
CCC(N)[C@]1(C2CCS(=O)(=O)CC2)CC[C@H](Oc2cc3cc[nH]c(=O)c3cc2Cl)CC1 (stereo partly drawn) [Example 99, cis-6-[4-(1-amino-propyl)-4-(1,1-dioxo-tetrahydrothiopyran-4-yl)-cyclohexyloxy]-7-chloro-2H-isoquinolin-1-one] | >1000 | ≤ 10 | >300 | –
